The values that follow come from US9980972B2, “Rho kinase inhibitors for use in treating familial amyotrophic lateral sclerosis” (GEORG-AUGUST-UNIVERSITÄT GÖTTINGEN STIFTUNG ÖFFENTLICHEN …, priority 2012, dated 2018).

For assay [1], the system named is SOD1 G93A mouse model of ALS. Briefly: Survival (age at death) in SOD1 G93A mouse model of ALS. As to conditions: for survival proportions over time: non-differentiated by gender. Type of assay: in vivo. The text has this: High-copy B6SJL-Tg(SOD1*G93A)1Gur/J were obtained from Jackson Labs (Stock Number 002726; Bar Harbor, USA) that had originally been produced by Gurney et al. (Gurney, Pu et al. 1994). The colony was maintained by crossing C57BL/6 males harboring the transgene with wild-type SJL females. To verify presence of the transgene in the F1 progeny, tail biopsies were collected from 14-day-old pups and genotyped using PCR. At the age of 35-45 days mice were moved to the testing facility to acclimate to the new environment with a 12-h light/dark cycle before being assigned to a study.
At 50 days (presymptomatic, d50) or 80 days of age (symptomatic, d80) mice were separated into Fasudil-30 (Fas30)- and Fasudil-100 (Fas100)-Treatment or Vehicle Control (Veh) groups. Prior to any treatment, groups were constituted so as to minimize between-group variability by using the following criteria. Groups were balanced with respect to gender and body weight within gender. In addition, groups were age-matched and littermate-matched. […] The study was observer-blinded.
To reach sufficient CSF levels of Fasudil the inventors administered Fasudil (LC Labs, Woburn, USA; product number F-4660) at a low concentration of […] (Fas30) or at a high concentration of 50 mg (Fas100) in 100 ml drinking water. Control groups received the respective amount of isotonic drinking water termed as vehicle (Veh).
Chronic oral treatment with a low dose of Fasudil (F30) or a high dose of Fasudil (F100) was started either presymptomatically at day 50 or symptomatically at day 80 and continued until death.
Survival. Date and cause of death were recorded for each mouse. For humane reasons, animals are closely monitored and sacrificed as moribund prior to actual death using criteria for severe moribundity. To determine duration of survival reliably and humanely, the moribund state, defined as the inability of mice to right themselves 30 seconds after being placed on a side (a neurological score of 4) was used. The moribund mice were scored as “dead”, and were euthanized using carbon dioxide.
The data were then analyzed using Kaplan-Meier survival fit analysis with the Log-Rank and Wilcoxon tests for statistical significance. Cox proportional hazards analysis was also performed to determine hazard ratios and test for statistical significance of their differences using the Effect Likelihood Chi Square test. Statistical analyses were performed using Statistica 9.1 (StatSoft, Hamburg, Germany). P-values less than 0.05 were taken to be statistically significant.
The criteria to terminate the therapy study (later referred to as time of death) were fulfilled if the animals had reached the terminal neurological scoring or had lost a defined percentage of the maximal body weight. This time point then reflects the survival time of the animals whereas disease duration was measured from onset of disease until time of death.

The subject of assay [2] is SOD1 wt and SOD1G93A microglia. Briefly: LPS-triggered cytokine/chemokine release of primary microglia (ELISA). It counts as cell-based, mouse. The note with it: 18 hours; for proinflammatory cytokine release: SOD1 wt and SOD1G93A microglia. How it is done:
Primary cell cultures were prepared from whole brains of newborn (PO) mice and cultured in complete Dulbecco's modified Eagle's medium (DMEM, Invitrogen/Gibco, Karlsruhe, Germany), supplemented with 10% fetal calf serum (FCS, Invitrogen/Gibco), 100 U/ml penicillin and 100 μg/ml streptomycin (both Biochrom, Berlin, Germany) as previously described (Regen, et al. (2011) Brain, Behavior, and Immunity 25(5): 957-970). In brief, brains of newborn B6/SJL SOD1G93A and from B6/SJL SOD1wt, respectively, were liberated from meninges and blood vessels, washed with Hank's balanced salt solution (HBSS; Biochrom) and incubated with 2.5% trypsin (Biochrom) for 10 min at 37° C. The enzymatic reaction was stopped by addition of complete medium, supplemented with DNAse [5 mg/ml] (Worthington Biochemicals, Lakewood, N.J., USA). Remaining cell clusters were mechanically separated and the suspension was centrifuged at 900 rpm at 4° C. for 10 min. The supernatant was removed, cells were resuspended in fresh complete medium and seeded in 75 cm2, poly-L-lysine (PLL)-coated culture flasks. Immediately before being used, flasks were incubated with 100 μg/ml PLL (Invitrogen/Gibco) for 30 min at RT and excess of PLL was washed off by three rinses with sterile ddH2O. Subsequently, cultures were maintained in a humidified atmosphere with 5% CO2 at 37° C. On the next day, primary mixed-glial cultures were washed three times (PBS, Invitrogen/Gibco) and received fresh complete medium, the latter being repeated the following day. One week after seeding, microglial proliferation was stimulated by adding complete medium supplemented with 30% of L929-conditioned cell culture supernatant (see section “L929 Mouse Fibroblast Cultures” below). After another two days, microglial cells were harvested by shaking them off the astrocytic layer, taking advantage of their different adhesion properties. After washing with complete medium and counting, cells were plated in 96-well plates at a density of 15,000 cells/well for ELISA or were plated in 24-well plates at a density of 50,000 cells/well on PLL-coated coverslips for later immunocytochemical processing.
Primary cultures underwent five different general treatments: (a) Cells were left untreated in medium serving as controls. (b) Cells were stimulated with the TLR4 ligand LPS (E. coli R515; Axxora/Appotech TLR ligand set 1, APO.54N-018) for 18 hours at a final concentration of 10 ng/ml. (c) Cells underwent a treatment with Fasudil at 2 μM, 10 μM or 50 μM, respectively, for 18 hours. (d) Cells were stimulated with LPS, as described above, in the presence of various concentrations of Fasudil. (e) Cells were preincubated for 1 h, 4 h or 12 h, respectively with Fasudil at 50 μM, prior to a LPS challenge in the continued presence of Fasudil at 50 μM. Stimulation experiments were routinely carried out twice.
Following microglial stimulations and treatments, culture supernatants were collected and stored at −20° C. until assayed. Supernatants were analyzed for the release of cyto- and chemokines by commercial enzyme-linked immunosorbent assay (ELISA) test systems. Levels of IL-6, CCL2 (monocyte chemoattractant protein, MCP-1), CCL3 (macrophage inflammatory protein, MIP-1α) and CCL5 (regulated upon activation normal T-cell expressed and presumably secreted, RANTES) and CXCL1 (Chemokine (C-X-C motif) ligand 1) were determined using DuoSet ELISA Development Kits (R&D Systems). TNFα (tumor necrosis factor α) was determined using MAXTM ELISA kit (Biolegend). Absorbance was measured at 450 nm (with a 540 nm reference wavelength) using a microplate reader (Bio-Rad).
Background: An ELISA detects its analyte on a solid surface through an enzyme-linked reagent.

Setting [3] is: LPS 10 ng/ml + Fasudil 50 μM, both genotypes.

Consider `O=S(=O)(c1cccc2cnccc12)N1CCCNCC1` [Fasudil, 1-(5-isoquinolinesulfonyl)homopiperazine], for which the average survival in assay [1] (female, presymptomatic (d50) treatment, Fas30 (30 mg/kg/day in drinking water), control 130.4 days) turned out to be 141.8 days. Besides, the survival result was “trend in prolongation of survival” in assay [1] (male, presymptomatic (d50), Fas30) and “not able to prolong survival” in assay [1] (symptomatic treatment start, female or male group). Moreover, the “survival proportions over time” value in assay [1] (presymptomatic (d50), Fas30) is listed as “profited significantly from the treatment”; in assay [1] (symptomatic (d80), Fas30) it was “did not show a statistically significant difference”; in assay [1] (symptomatic (d80), Fas100 (100 mg/kg/day)) it was “did not show a statistically significant difference”. Besides, the survival effect result in assay [1] (presymptomatic (d50), Fas100, compared with Fas30) is “less prominent”. Further, the proinflammatory cytokine release entry in assay [2] (LPS 10 ng/ml + Fasudil 2 μM) and in assay [2] (LPS 10 ng/ml + Fasudil 10 μM) was “not efficient in significantly reducing” throughout. Further, the “release of CCL3” value in assay [2] (setting [3]) was “markedly reduced”. Moreover, the “release of CXCL1” value in assay [2] (setting [3]) was “markedly reduced”. For the same molecule, the “release of IL-6” value in assay [2] (setting [3]) was “markedly reduced”. Besides, the “release of RANTES” value in assay [2] (setting [3]) is recorded as “markedly reduced”. For the same molecule, the “release of TNFα” value in assay [2] (setting [3]) is given as “markedly reduced”. Moreover, the “change of CCL2 release” value in assay [2] (LPS 10 ng/ml + Fasudil 50 μM, relative to LPS alone (100%), slightly increased/unaffected) is “+8.9%”.
